The values below come from publication PMC5762686, “Structural ensemble-based docking simulation and biophysical studies discovered new inhibitors of Hsp90 N-terminal domain” (Scientific Reports, 2018).

For assay [1], the target named is T1, Hsp90N (Homo sapiens, UniProt P07900).
T1 construct: contains DNA corresponding to residues 1–235 of human Hsp90α; made in house; host or cells: Escherichia coli BL21 (DE3)
Kind of assay: Differential scanning fluorimetry (DSF), change of Tm. The assay is classed as binding. The conditions noted are these: apo Tm 44.4 °C, Hsp90N 2 μM, inhibitor 200 μM.
Protocol: We also measured the change in the Tm value using differential scanning fluorimetry (DSF) to support direct binding (Fig. 2C).
DSF using a RT-PCR system (CFX connect, BioRad) assessed the stability of Hsp90N in the absence and presence of the hit compounds that were identified by 2D NMR[75]. Once Sypro-Orange (5×) was added into the solution of Hsp90N with each hit compound, the fluorescence from the dye was measured with excitation at 492 nm and emission at 610 nm in a temperature-dependent manner from 30 to 90 °C. The concentrations for Hsp90N and inhibitors were 2 and 200 μM, respectively. As a control, DMSO was mixed with the protein, and the fluorescence was measured with an identical procedure. The mid-point of the melting temperature, Tm, was deduced by calculating the temperature that maximizes the differential curve of the profiles.

Assay [2] concerns Hsp90. The arrangement: method as in PMID 16854066. To be noted: fluorescence polarization; cited from earlier work.
The test system of assay [3] is Hsp90N. On the set-up: method as in PMID 27899599. The conditions noted are these: PubChem BioAssay database AID: 712; cited from earlier work.
Assay [4] relates to Hsp90N. On the set-up: method as in PMID 19519743. To be noted: BindingDB; cited from earlier work.

Where two headings read alike, the source gives them in different places.

With `CO[C@H]1/C=C\C=C(/C)C(=O)NC2=CC(=O)C(NCCN(C)C)=C(C[C@@H](C)C[C@H](OC)[C@H](O)[C@@H](C)/C=C(\C)[C@@H]1OC(N)=O)C2=O` [17-DMAG], the “elevated Tm values” in assay [1] was determined as 11.3. Besides, the IC50 in assay [2] was 0.062 µM. On to `Cc1cc(SCC(N)=O)nc(SCC(=O)c2ccccc2)n1` [ZINC00421600], for which the IC50 in assay [3] is 50 µM. Regarding `Oc1ccc(-c2n[nH]c(=S)n2-c2ccccc2)c(O)c1` [ZINC01264822], the IC50 in assay [4] was 0.0005 µM.

With `CCc1cc(-c2n[nH]cc2-c2ccc3c(c2)OCO3)c(O)cc1O` [ZINC18130036], the half-inhibitory concentration (IC50) in assay [3] is 2 µM.
